We go through six molecules from patent US20200232961A1, “CHARACTERIZATION AND APPLICATION OF POLYMERS FOR IN VIVO RELEVANT DRUG ABSORPTION CHARACTERIZATION IN VITRO” (priority 2017, published 2020).

In brackets after ≈: the same amount, converted by molar mass. Structures can show the parent of a compound that is named as a salt. Where two headings read alike, the source gives them in different places.

Data set [1] is described as follows: Partition coefficient measurements in PDMS membranes. The format is physicochemical. The note with it: intrinsic non-ionized partition coefficient, N = 5. As for the experimental part: For each drug, five membranes were prepared. Each membrane was prepared with 10 parts base to 1 part curing agent and cured at 20° C. for at least 72 hours. Once cured, the membranes were sectioned using a template and razor blade. The dimensions of the perimeter and thickness were measured using a caliper to determine the volume of membrane. After determining membrane density, subsequent volume measurements were made using the density relationship. Stock solution was distributed to 5 sample vials with 1 membrane-free vial to serve as a control. The time zero point was measured from the blank vial and time points and 1 mL samples were taken at 12 and 24 hours. The collected samples were assayed in duplicate by HPLC. Bulk transport properties of PDMS were measured to evaluate PDMS fitness for the mimicking human oral absorption. The partition coefficient was calculated according to Equation 4. K=Partition coefficient Cmem*=Equilibrium concentration of drug in membrane Caq*=Equilibrium concentration of drug in the aqueous media

A short description of data set [2]: Rotating membrane diffusion cell experiments (permeation through PDMS membrane). The note with it: for LAG TIME (PRED.): predicted from Crank's method (Equation 16); for LAG TIME (EXP.): time to steady state transport across the membrane, linear regression of concentration versus time.
For data set [3] the following is noted: not told.
Data set [4] is classed as physicochemical. As to the method: This experiment was conducted in a manner similar to the experiment described in “Partition Coefficient Measurements”, above. […] Four different mass % of curing agents (4.9%, 9.1%, 16%, and 25%) were examined at two different pH conditions (2.00 HCl 13 mM & 6.50 phosphate 50 mM). The Log DPDMS was measured as a function of pH at pH 2.00, 5.00, 6.45, and 12.00 using 13 mM HCl, 50 mM acetate, 50 mM phosphate, and 39 mM NaOH buffers, respectively, at RT (FIG. 5C).

A further data set can be described thus: physchem. The note with it: pH 2, aqueous buffer, thermodynamic from solid. As to the method:
Five 1.5 mL centrifuge tubes were labeled and prepared with 1 mL of the appropriate non-ionizing buffer (see Table 5). Solid drug in powder form was added to each individual vial and then vortexed. The addition of drug and vortex mixing was repeated until there was visible undissolved drug powder present. The centrifuge tubes were then put into a hot box where they remained at an aqueous temperature of 37° C. (set point 43° C.). The internal temperature was determined by measuring the temperature of a “blank” tube in the rack. Once the internal temperature reached 37° C., the tubes were held at 37° C. for 48 hours. The tubes were removed from the hot box and centrifuged at 17,000G for 3 hours. The tubes cooled below 37° C. during the centrifugation so the tubes were re-inserted into the hot box and allowed to reach 37° C. over the course of 1 hour. Supernatant was then extracted directly from the tube in the hot box without disturbing the pellet. The supernatant was appropriately diluted for HPLC analysis.
In each permeation experiment, the donor-phase-containing drug was at a non-ionizing pH if the drug was ionizable and the receiver phase was at a completely ionizing (>99%) pH. […] Progesterone solubility was determined twice, the second time as an analytical check.

The nature of data set [5]: Equilibrium partition coefficient of ibuprofen into VeroClear resin spheres. Format: physicochemical. As to conditions: pH 2 in VeroClear, 10 mm diameter spheres.
The nature of data set [6]: Mass increase of PDMS membranes after equilibrium partitioning with ibuprofen. Format: physicochemical. As to the method: Ibuprofen was chosen as a model drug because of its high lipophilicity and the ability to measure the difference in mass of drug in the membrane before and after the partitioning experiment. There was no statistical difference in the positronium lifetimes, but there was a 1.76 mg±0.12 mg (n=7) mass increase in 25% by mass curing agent PDMS membranes, and a 2.90 mg±0.38 mg (n=6) mass increase in […] by mass curing agent PDMS membranes.

Data set [7] can be described thus: UTLAM diffusion cell dissolution/absorption experiment. The format is in vitro ADME. The note with it: 57 micron PDMS UTLAM, donor 50 mM phosphate pH 6.5, receiver pH 8.0, 37° C., 50 rpm, 162 mg dose. As for the experimental part: According to the SEM freeze-fracture-determined thickness based on the terminal rotational speed and mass fraction of PDMS, the membranes tested in the following experiments were 57 microns thick. 130 mL of 50 mM phosphate buffer pH 6.5 was degas sed and used as the donor phase, while 100 mL of 50 mM phosphate buffer pH 8.0 was degas sed and used as the receiver phase. The rationale behind this is that PDMS has poor ability to transport ions (a […] pH-partition relationship) and the more ionized the drug is, the less driving force the drug will provide for reverse transport out of the receiver phase. […] Ultimately, this leads to a […] transport rate of ibuprofen returning to the donor compartment. […] It is understood that the measured absorption rate is […] due the additional partitioning kinetics introduced by the resin that forms the UTLAM device. […] Physiologically, it is understood that the bicarbonate buffer bulk pH and buffer capacity are lower in the duodenum and jejunum than that of the USP 2 dissolution test. […]
The PDMS UTLAM is floated in deionized water and in about two hours the PVA is dissolved enough to tease the PDMS UTLAM to the surface of the water. […] Equivalent stirring rates could be calculated for the USP 2 paddle using CFD measurements made in COMSOL. […]

For data set [8] the following is noted: literature values (refs 6, 41); cited from earlier work.
[9] abbreviates: average PDMS KD divided by 10^LogK for PDMS.

For the molecule `O=C(O)c1ccccc1` [BENZOIC ACID, Benzoic Acid], the “PDMS LOGK” value in data set [1] is reported as 0.10. In addition, in [2], the “LAG TIME (PRED.)” value was 238 min and the “LAG TIME (EXP.)” value is 25 min.
On to `Cn1c(=O)c2c(ncn2C)n(C)c1=O` [CAFFEINE, Caffeine], for which, in data set [3], the “AVG. PDMS (K*D)” value was 6.02 × 10^−10 CM^2 S^−1 and the “LAG TIME (PRED.)” value was 571 min. In addition, the “PARTITION I[…]. COEFF (K*D)/10^LOGK^PDMS” value in data set [2] (setting [9]) is given as 1.70 × 10^−8 CM^2 S^−1.
Turning to `CC(C)Cc1ccc(C(C)C(=O)O)cc1` (stereo not drawn) [IBUPROFEN, Ibuprofen], the “PDMS LOGK” value in data set [1] worked out at 1.79. Besides, the “MEASURED PDMS LOGPU ± SE” value in data set [4] was 1.81. In data set [4] (calculated to fit equation 6 using data at pH 11.81 and fu~0), the “PI EQ. 6” value is listed as 0.008. In addition, in data set [4] (intrinsic non-ionized partition coefficient, N = 15), the “MEASURED PDMS PU ± SE” value is 65. Also, the “K (partition coefficient) in PDMS” value in data set [4] (pH 2) worked out at 65. Also, in data set [4] (pH 11.81), the “MEASURED PDMS LOGPI ± SE” value is on record as −0.286. Moreover, the solubility (thermodynamic) (as a rule, the concentration in solution at equilibrium with solid) at 48 h in the data set “physchem” (NON-IONIZED SOLUBILITY) is 60 mg/mL (≈ 291 mM). Further, the “K (equilibrium partition coefficient) in VeroClear” value in data set [5] came out at 86. Besides, the “mass increase of PDMS membrane after equilibrium partitioning” value in data set [6] (3.2% by mass curing agent PDMS membranes, n=6) is on record as 2.90 mg. In data set [6] (25% by mass curing agent PDMS membranes, n=7), the “mass increase of PDMS membrane after equilibrium partitioning” value came to 1.76 mg. The “absorption rate (net flux)” value in data set [7] was “within the same order of magnitude of ibuprofen absorption in human beings”. In data set [3], the “AVG. PDMS (K*D)” value was 1.83 × 10^−5 CM^2 S^−1 and the “LAG TIME (PRED.)” value was 158 min. For the same molecule, the “PARTITION INDEPENDENT DIFF. COEFF (K*D)/10^LOGK^PDMS” value in [2] (setting [9]) was 2.99 × 10^−7 CM^2 S^−1.
Consider `CC(C(=O)O)c1cccc(C(=O)c2ccccc2)c1` (stereo not drawn) [KETOPROFEN, Ketoprofen], for which the “PDMS LOGK” value in data set [1] worked out at 0.56. Moreover, the pKa – broadly, the pH at which an ionisable group is half protonated – in [8] was 3.89. For the same molecule, in data set [2] (setting [9]), the “PARTITION INDEPENDENT DIFF. COEFF (K*D)/10^LOGK^PDMS” value is listed as 2.58 × 10^−8 CM^2 S^−1. Moreover, in data set [2] (non-ionized drug, donor/receiver buffer I/III as printed, 37° C., 150 rpm), the “AVG. PDMS (K*D)” value is on record as 9.46 × 10^−8 CM^2 S^−1. In addition, in [2], the “LAG TIME (PRED.)” value was 482 min and the “LAG TIME (EXP.)” value was 232 min.
Turning to `COCCc1ccc(OCC(O)CNC(C)C)cc1` (stereo not drawn) [METOPROLOL TARTRATE, Metoprolol Tartrate], the “PDMS LOGK” value in data set [1] was determined as 0.68.
Consider `CC(=O)[C@H]1CC[C@H]2[C@@H]3CCC4=CC(=O)CC[C@]4(C)[C@H]3CC[C@]12C` [PROGESTERONE, Progesterone], for which, in data set [1], the “PDMS LOGK” value is 2.03. This molecule also gave a thermodynamic solubility at 48 h in “physchem” (13 mM hydrochloric acid buffer, NON-IONIZED SOLUBILITY (ANALY. COMP.), second determination as analytical check with different dilution, pH 2.00 13 mM hydrochloric acid buffer at 37° C.) of 20.9 mg/mL (≈ 66.5 mM). For the same molecule, the solubility (thermodynamic) at 48 h in the data set “physchem” (13 mM hydrochloric acid buffer, NON-IONIZED SOLUBILITY, I = pH 2.00 13 mM hydrochloric acid buffer at 37° C.) amounted to 21.3 mg/mL (≈ 67.7 mM). In data set [3], the “AVG. PDMS (K*D)” value is 1.14 × 10^−5 CM^2 S^−1 and the “LAG TIME (PRED.)” value was found to be 158 min. In addition, in [2] (setting [9]), the “PARTITION INDEPENDENT DIFF. COEFF (K*D)/10^LOGK^PDMS” value is recorded as 1.07 × 10^−7 CM^2 S^−1.
